Results taken from US8889733B2, “Artonin I to treat resistant infectious Staphylococcus aureus” (priority 2013, dated 2014).
Like-named read-outs stand apart in the source and are kept apart here.

What was measured:
EMRSA-17 [1] = experiment: Reversal of Multi-Drug Resistance (MIC/FIC of antibiotics combined with compound 1); type: cell-based, Staphylococcus aureus; conditions: for FIC (s): FIC (a) + FIC (b), antibiotic plus Compound 1; for FIC (b): FIC of Compound 1 in combination with the antibiotic named as label; for FIC (a): FIC of the antibiotic = MIC in combination with Compound 1 / MIC alone; for MIC: Staphylococcus aureus
Description: (§1) Assay Protocol: Protocol of Chung et al, (2001), with slight modifications, was followed. 5×10 MDR S. aureus cells were treated with 20 μg/mL of test compounds and incubated for 20 hours. Control cells were not exposed to any test compound and antibiotic. In 96-well plate, increasing concentration of antibiotics, along with the fixed concentration of test compounds were added. Inoculum of 5×10^5 cells was applied to all wells. The presence or absence of growth in all combination wells were noted visually and by using the dye Alamar blue.
(§2) Fractional inhibitory concentrations were calculated by the above cited formulae. • FIC of Antibiotic a (FICa)=MIC of Antibiotic a in combination/MIC of antibiotic a alone • FIC of Compound b (FICb)=MIC of Compound b in combination/MIC of compound b alone
(§3) The sum of Fractional Inhibitory Concentration (FICs) index of: (FICa)+(FICb)=(FICs)

Clinical Isolates [2] = experiment: as above; type: cell-based, Staphylococcus aureus; conditions: for FIC (s): FIC (a) + FIC (b), antibiotic plus Compound 1; for FIC (b): FIC of Compound 1 in combination with the antibiotic named as label; for FIC (a): FIC of the antibiotic = MIC in combination with Compound 1 / MIC alone; for MIC: Staphylococcus aureus
Description: as §1, §2, §3

EMRSA-17 [3] = experiment: High throughput screening assay (MABA) against MDR S. aureus; type: cell-based; conditions: Staphylococcus aureus, 20 μg/mL, 20 hours, Alamar Blue
Description: (§4) High throughput screening assay (MABA) against MDR S. aureus:
(§5) Inocula Preparation: Isolated colonies of S. aureus were picked and inoculated into Muller Hinton broth and incubated at 37° C. for 20 hours. After 20 hours, the turbidity was checked and adjusted to 0.5 McFarland standards.
(§6) Assay Protocol: Assays were performed according to method reported by Sarkar et al. (2007) with slight modifications. Flat bottom, polystyrene, non-tissue culture treated, sterile 96-well micro titer plates were used with proper labeling. Stock solutions of test compounds 1 and 2 were prepared in DMSO with the concentration of 1 mg/mL. 4 μL from stock solutions were distributed in each well, except the control wells of the plate. Two fold serial dilutions using sterile broth were made with the final volume of […], in each well. The bacterial suspensions (cone 5×10^5) were then added in each wells. The plate was sealed by parafilm and incubated at 37° C. for 20 hours. The plates were prepared in triplicate. Next day, 10% Alamar Blue Dye was added to the culture and kept on shaking incubator at 37° C. for 3 to 4 hours. The color change was then assessed visually, qualitatively and quantitatively by recording absorbance at 570 and 600 nm by a spectrophotometer. The percentage inhibition of compound 1 and 2 against EMRSA-16, and 17, MRSA-252 and clinical isolate by MABA assays are given in Table 1.
(§7) Percentage reduction and inhibition of Alamar blue dye was calculated by using the following formula.
(§8) Here control wells contain only media plus Alamar Blue, while the test wells contains both Alamar Blue with the test compounds.

EMRSA-16 = experiment: as above; type: cell-based; conditions: Staphylococcus aureus, 20 μg/mL, 20 hours, Alamar Blue
Description: as §4, §5, §6, §7, §8

Clinical Isolates [4] = experiment: as above; type: cell-based; conditions: Staphylococcus aureus, 20 μg/mL, 20 hours, Alamar Blue
Description: as §4, §5, §6, §7, §8

MRSA-252 = experiment: as above; type: cell-based; conditions: Staphylococcus aureus, 20 μg/mL, 20 hours, Alamar Blue
Description: as §4, §5, §6, §7, §8

[5] = tested on: MDR Efflux Pumps of clinical isolates; experiment: EtBr accumulation/efflux flow cytometry assay; type: cell-based, Staphylococcus aureus; conditions: compound 1 in combination with antibiotics, 3 hrs, FL2
Description: (§9) Assay Protocol: Protocol of Kalle et al, (2009) was employed with some modifications. Control cells were not exposed with any test compound or antibiotic. Combination of test compound and antibiotics were incubated for 3 hrs in test cells. Ethiduim bromide (EtBr) was added in to the Eppendorff, containing the combination of both drugs and compound. Cells with the drugs were also incubated and stained with EtBr. Control and treated samples were centrifuged for 3 min at 13,000 rpm. Supernatant was […] and the pallet was washed with PBS. Positive control contains ethidium bromide, while negative control was EtBr free. Flow cytometric analysis was carried out done by using the FL2 channel.
(§10) Flow cytometry data acquisition: The flow cytometric assay was performed. A total of 50,000 cells were counted by using Cell Quest software (BD) for data acquisition and analysis. EtBr was excited at 488 nm and the fluorescence detected through a 585 nm filter (FL-2 channel).

[6] = tested on: MDR Efflux Pumps of EMRSA-17; experiment: EtBr accumulation/efflux flow cytometry assay; type: cell-based, Staphylococcus aureus; conditions: compound 1 in combination with antibiotics, 3 hrs, FL2
Description: as §9, §10

clinical isolate = experiment: Membrane potential and integrity, DiBAC4(3) flow cytometry; type: cell-based, Staphylococcus aureus; conditions: 20 μg/mL, 20 hrs, flow cytometry FL1
Description: (§11) Compound Treatment: 5×10^5 MDR S. aureus cells were treated with 20 μg/mL of test compounds and incubated for 20 hours, while the control cells were incubated without test compound.
(§12) Cell Staining: Staining procedure of Jepras et al. (1997) was adapted with slight modifications. Stock solutions (1 mg/mL) for the membrane potential probe DiBAC4(3) were made in absolute ethanol and stored at −20 ° C. […] Samples (1 mL) of exponentially growing S. aureus were taken from broth cultures. Samples were centrifuged at 11,000 rpm for 2 min and the supernatant was discarded. Cell pellets were resuspended in 4 mL of filtered phosphate-buffered saline (PBS). Fluorogenic substrates DiBAC4(3) were added to the cell suspensions to obtain a final concentration of 10 μg/mL. The suspensions were then incubated at 37° C. for 30 min. Cells were washed by centrifugation in the PBS buffer and then analyzed by flow cytometry.
(§13) Flow cytometry data acquisition: The flow cytometric assay was performed on a Becton Dickinson FACSCaliber™ flow cytometer. A total of 50,000 cells were counted by using Cell Quest software (BD) for data acquisition and analysis. The emission maximum of DiBAC4(3) was at 516 nm and its green fluorescence was detected in the channel FL1 (Veal et al., 2000).

EMRSA-17 [7] = experiment: as above; type: cell-based, Staphylococcus aureus; conditions: 20 μg/mL, 20 hrs, flow cytometry FL1
Description: as §11, §12, §13

EMRSA-17 [8] = experiment: Lucigenin CL assay of Reactive Oxygen Species (O2-) production; type: cell-based, Staphylococcus aureus; conditions: different concentrations, RLU
Description: (§14) Assay Protocol: Protocol of Albesa et al (2002) was followed with slight modifications. 5×10^5 Cells were treated with the different concentrations of test compounds. Cells with compounds were incubated with leueigenin and filtered phosphate buffer saline. DMSO was added to the each well at the time of RLU determination to trigger the reaction. […] Positive control contains DMSO, but not the test compound. Determination by chemiluminescence (CL) was performed at room temperature by luminometer. The light emission results were measured in relative light unit (RLU).

Clinical Isolates [9] = experiment: as above; type: cell-based, Staphylococcus aureus; conditions: different concentrations, RLU
Description: as §14

[10] = antibiotic in combination with Compound 1
[11] = antibiotic alone, read-out: MIC (a)
[12] = antibiotic in combination with Compound 1, listed as clindamycin
[13] = Compound 1 alone, read-out: MIC (b)

Compound | FIC (s) (EMRSA-17 [1]) | FIC (b) (EMRSA-17 [1]) | MIC (a) (EMRSA-17 [1]; antibiotic alone) [µg/mL] | Effect (EMRSA-17 [1]; [10]) | MIC (a + b) (EMRSA-17 [1]; [10]) [µg/mL] | Effect (Clinical Isolates [2]; [10]) | MIC (a + b) (Clinical Isolates [2]; [10]) [µg/mL] | MIC (EMRSA-17 [1]; [11]) [µg/mL] | MIC (Clinical Isolates [2]; [11]) [µg/mL] | further results
Penicillin | 0.164 | 0.16 | 2084 | Synergistic | 4 | Synergistic | 8 |  |  | FIC (a) (EMRSA-17 [1]): 0.0039; FIC (s) (Clinical Isolates [2]): 0.3238; FIC (b) (Clinical Isolates [2]): 0.320; FIC (a) (Clinical Isolates [2]): 0.0038; MIC (a) (Clinical Isolates [2]; antibiotic alone): 2084 µg/mL
O=C(O)c1cn(C2CC2)c2cc(N3CCNCC3)c(F)cc2c1=O [Ciprofloxacin] | 0.164 | 0.16 |  | Synergistic | 4 |  |  |  |  | 
CC[C@H]1OC(=O)[C@H](C)[C@@H](O[C@H]2C[C@@](C)(OC)[C@@H](O)[C@H](C)O2)[C@H](C)[C@@H](O[C@@H]2O[C@H](C)C[C@H](N(C)C)[C@H]2O)[C@](C)(O)C[C@@H](C)C(=O)[C@H](C)[C@@H](O)[C@]1(C)O [Erythromycin] | 0.324 | 0.32 |  | Synergistic | 8 | Synergistic | 8 | 1020 | 2050 | 
NCC[C@H](O)C(=O)N[C@@H]1C[C@H](N)[C@@H](O[C@H]2O[C@H](CN)[C@@H](O)[C@H](O)[C@H]2O)[C@H](O)[C@H]1O[C@H]1O[C@H](CO)[C@@H](O)[C@H](N)[C@H]1O [Amikacin] | 0.351 | 0.32 |  | Synergistic | 8 | Partial |  |  | 128 | 
CCC[C@@H]1C[C@@H](C(=O)N[C@@H]([C@H]2O[C@H](SC)[C@H](O)[C@@H](O)[C@H]2O)[C@H](C)Cl)N(C)C1 [Clindamicin] | 0.322 | 0.32 | 4096 | Synergistic | 8 | Synergistic | 16 |  |  | MIC (a) (EMRSA-17 [1]; antibiotic alone, listed as clindamycin): 1024 µg/mL; MIC (a) (Clinical Isolates [2]; antibiotic alone): 4096 µg/mL; Effect (Clinical Isolates [2]; [12]): partial synergistic activity; MIC (a + b) (Clinical Isolates [2]; [12]): 8 µg/mL
CC(C)=CCc1c(O)ccc(C(=O)[C@@H]2C(c3ccc(O)cc3O)CC(C)=C[C@@H]2c2c(O)cc3oc(-c4ccc(O)cc4O)cc(=O)c3c2O)c1O (stereo partly shown) [Compound 1, artonin I] |  |  |  |  |  |  |  |  |  | inhibition at 20 µg/mL (EMRSA-17 [3]): 91.1%; inhibition at 20 µg/mL (EMRSA-16): 88.7%; inhibition at 20 µg/mL (Clinical Isolates [4]): 88.9%; inhibition at 20 µg/mL (MRSA-252): 69.4%; efflux activity, EtBr accumulation [5]: decrease in the efflux activity was observed; efflux activity, EtBr accumulation [6]: decrease in the efflux activity was observed; membrane potential and integrity, DiBAC4(3) fluorescence (clinical isolate): bulky peaks steadily moved towards the area of increasing fluorescence; membrane potential and integrity, DiBAC4(3) fluorescence (EMRSA-17 [7]): majority of population was shifted in a rapid regular pattern due to the change in membrane potential; MIC (EMRSA-17 [1]; [13]): 25 µg/mL; MIC (Clinical Isolates [2]; [13]): 25 µg/mL; production of O2- (ROS), lucigenin chemiluminescence (EMRSA-17 [8]): more production of O2^− was observed; production of O2- (ROS), lucigenin chemiluminescence (Clinical Isolates [9]): more production of O2^− was observed
O=C(N[C@H](CO)[C@H](O)c1ccc([N+](=O)[O-])cc1)C(Cl)Cl [Chloramphenicol] | 0.328 | 0.32 |  | Synergistic | 8 | Synergistic | 8 | 1020 | 1020 | 
Gentamicin | 0.164 | 0.16 | 512 | Synergistic | 4 | Synergistic | 8 |  |  | FIC (a) (EMRSA-17 [1]): 0.0039; FIC (s) (Clinical Isolates [2]): 0.3356; FIC (b) (Clinical Isolates [2]): 0.320; FIC (a) (Clinical Isolates [2]): 0.0156; MIC (a) (Clinical Isolates [2]; antibiotic alone): 512 µg/mL
Cc1onc(-c2ccccc2)c1C(=O)N[C@@H]1C(=O)N2[C@@H]1SC(C)(C)[C@@H]2C(=O)O [Oxacillin] | 0.0809 | 0.08 |  | Synergistic | 2 | Synergistic |  | 4100 | 2080 | 
Neomycin | 0.336 | 0.32 | 512 | Synergistic | 8 | Synergistic | 8 |  |  | FIC (a) (EMRSA-17 [1]): 0.1562; MIC (a) (EMRSA-17 [1]; antibiotic alone, listed as neomycin): 256 µg/mL; FIC (b) (Clinical Isolates [2]): 0.320; FIC (a) (Clinical Isolates [2]): 0.0078
Cc1cc(NS(=O)(=O)c2ccc(N)cc2)no1 [Sulfamethoxazole] | 0.324 | 0.32 |  | Synergistic | 8 | Synergistic |  | 2080 | 2050 | 
[H]/N=C(/N)N[C@H]1[C@H](O)[C@@H](O)[C@H](O[C@@H]2O[C@@H](C)[C@](O)(C=O)[C@H]2O[C@@H]2O[C@@H](CO)[C@H](O)[C@@H](O)[C@@H]2NC)[C@@H](N/C(N)=N\[H])[C@@H]1O [Streptomycin] | 0.647 | 0.64 |  | Partial | 16 | Synergistic |  | 2080 | 2050 | Effect (EMRSA-17 [1]; antibiotic in combination with Compound 1, listed as streptomycin): partial synergistic effect
